Reference: ChEMBL document CHEMBL1201862, “PubChem BioAssay data set” (2004)
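Where inhibition never reached the appropriate level, the endpoint shown equals the highest concentration tested. Otherwise, values were interpolated linearly from a five-concentration, 48-hour dose response in 96-well plates. At the GI50, growth is halved.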 Activity calls are given as the source filed them. Cut-off read from the data, not from the text of the source: active = GI50 up to about 1.1 µM and inactive = higher.

Key:
Test in all cases: DTP human tumour cell line panel, 48 h
[1] = test system: SK-MEL-2
[2] = test system: UACC-62
[3] = test system: SNB-75
[4] = test system: SNB-19
[5] = test system: HCT-15
[6] = test system: PC-3
[7] = test system: Malme-3M
[8] = test system: T47D
[9] = test system: MDA-MB-435
[10] = test system: SF-295
[11] = test system: OVCAR-5
[12] = test system: HL-60
[13] = test system: OVCAR-8
[14] = test system: UACC-257
[15] = test system: HOP-62
[16] = test system: NCI-H522
[17] = test system: RXF 393
[18] = test system: SW-620
[19] = test system: M14
[20] = test system: MCF7

Row | Structure (SMILES) | GI50 [1] | GI50 [2] | GI50 [3] | GI50 [4] | GI50 [5] | GI50 [6] | GI50 [7] | GI50 [8] | GI50 [9] | GI50 [10] | GI50 [11] | GI50 [12] | GI50 [13] | GI50 [14] | GI50 [15] | GI50 [16] | GI50 [17] | GI50 [18] | GI50 [19] | GI50 [20]
1 | Cc1cc(CC(O)(C(F)(F)F)C(F)(F)F)cc(CC(O)(C(F)(F)F)C(F)(F)F)n1 | 2.44 µM (inactive) | 3.57 µM (inactive) | 2.31 µM (inactive) | > 100 µM (inactive) | 4.08 µM | 2.9 µM (inactive) | 1.56 µM (inactive) | 2.67 µM (inactive) | 2.88 µM (inactive) | 3.06 µM (inactive) | 6.79 µM (inactive) | 3.02 µM (inactive) | 3.48 µM (inactive) | 2.89 µM (inactive) | 3.33 µM (inactive) | 2.36 µM (inactive) | 4.24 µM (inactive) | > 100 µM (inactive) | 3.71 µM (inactive) | 
2 | O=C1CCCC2=C1CC1=C(CCCC1=O)N2c1ccccc1 |  | > 100 µM (inactive) | > 100 µM (inactive) | > 100 µM (inactive) | > 100 µM | > 100 µM (inactive) |  |  |  |  | > 100 µM (inactive) | > 100 µM (inactive) | > 100 µM (inactive) |  |  |  | 40.7 µM (inactive) | > 100 µM (inactive) | > 100 µM (inactive) | > 100 µM (inactive)
3 | Cc1ccc(-n2cc(-c3ccc(Cl)cc3)c3c2N=CN2N=C(c4ccco4)NC32)cc1 (centres undefined) | 10 µM (inactive) | 13.1 µM (inactive) | 4.75 µM (inactive) | 14.3 µM (inactive) | > 100 µM | 12.8 µM (inactive) | 31.3 µM (inactive) |  | 30.8 µM (inactive) | 6.11 µM (inactive) | > 100 µM (inactive) | > 100 µM (inactive) | 6.28 µM (inactive) | > 100 µM (inactive) | 7.64 µM (inactive) | 15.8 µM (inactive) | 11.2 µM (inactive) | 8.87 µM (inactive) | 28.8 µM (inactive) | 23.7 µM (inactive)
4 | C/C1=C\[C@H](C)C[C@H](C)OC(=O)C[C@H](c2ccc(O)cc2)NC(=O)[C@H](Cc2ccc(O)c(I)c2)N(C)C(=O)[C@H](C)NC(=O)[C@@H](C)C1 | 0.0646 µM (active) | 0.0428 µM (active) | 0.0354 µM (active) | 0.0143 µM (active) | 0.234 µM | 0.0608 µM (active) | 0.0118 µM (active) |  | 0.0442 µM (active) | 0.0778 µM (active) | 0.131 µM (active) |  | 0.0137 µM (active) |  | 0.0252 µM (active) | 0.0818 µM (active) |  | 0.00863 µM (active) | 0.0405 µM (active) | 0.019 µM (active)
5 | Nc1ccc(C(=O)Nc2ccccc2N)cc1 [DINALINE] | 23.3 µM (inactive) | 16.1 µM (inactive) | > 36.3 µM (inactive) | > 100 µM (inactive) | 54 µM | 31.5 µM (inactive) | 5.92 µM (inactive) |  | 20.4 µM (inactive) | 26.1 µM (inactive) | 8.15 µM (inactive) | 3.37 µM (inactive) | 8.99 µM (inactive) | 17.7 µM (inactive) | 18.7 µM (inactive) | 11.1 µM (inactive) | 38.2 µM (inactive) | 19.2 µM (inactive) | 65.2 µM (inactive) | 20.9 µM (inactive)
6 | C/C=C\C(CC(=O)O)CN1CCC2=C(C1)C(S(=O)(=O)C(F)(F)F)c1ccccc12 (centres undefined) | > 100 µM (inactive) | > 100 µM (inactive) | > 100 µM (inactive) | > 100 µM (inactive) | > 100 µM | > 100 µM (inactive) | > 100 µM (inactive) |  | > 100 µM (inactive) | > 100 µM (inactive) | > 100 µM (inactive) |  | > 100 µM (inactive) | > 100 µM (inactive) | > 100 µM (inactive) | > 100 µM (inactive) | > 100 µM (inactive) | > 100 µM (inactive) | > 100 µM (inactive) | > 100 µM (inactive)
7 | Nn1c(CCCCCCCCc2nnc(COc3ccc(Cl)cc3Cl)n2N)nnc1COc1ccc(Cl)cc1Cl | 42 µM (inactive) | 38.6 µM (inactive) | > 10 µM (inactive) | 30.9 µM (inactive) | 37.7 µM | 31 µM (inactive) | 6.71 µM (inactive) |  | 48.3 µM (inactive) | > 10 µM (inactive) | 35.6 µM (inactive) |  |  | 61.5 µM (inactive) |  | 17.3 µM (inactive) | 38.5 µM (inactive) | > 100 µM (inactive) | 49.3 µM (inactive) | 34.9 µM (inactive)
8 | Nc1nc(N)c2nc(CNc3ccc(C(=O)NC(CCNC(=O)c4ccccc4C(=O)O)C(=O)O)cc3)cnc2n1 (centres undefined) | > 100 µM (inactive) | < 0.0126 µM (active) |  | < 0.0434 µM (active) | 0.01 µM | 0.01 µM (active) | > 36.2 µM (inactive) |  | 0.01 µM (active) | 0.0718 µM (active) | > 100 µM (inactive) |  | 0.01 µM (active) |  | < 0.0205 µM (active) | 0.0897 µM (active) |  | 0.01 µM (active) | 0.01 µM (active) | 0.01 µM (active)
9 | C=C1C(C)C2C(Cc3ccccc3)NC(=O)C23OC(=O)/C=C\CC(=O)CCC(C)C/C=C/C3C1O (centres undefined) | 1.58 µM (inactive) | 2.45 µM (inactive) | 0.413 µM (active) | 2.6 µM (inactive) | 1.28 µM |  | 1.82 µM (inactive) | 0.635 µM (active) |  | 2.54 µM (inactive) | 8.69 µM (inactive) |  | 2.54 µM (inactive) | 1.36 µM (inactive) | 2 µM (inactive) | 0.859 µM (active) | 0.43 µM (active) | 1.36 µM (inactive) |  | 
10 | CCN(CC)c1nc(N(C)C)c2cc(OC)ccc2n1 | 36.6 µM (inactive) | 25.8 µM (inactive) |  | 48.6 µM (inactive) | 30.6 µM | 33.2 µM (inactive) | 20.3 µM (inactive) |  | 30.1 µM (inactive) | 26.7 µM (inactive) | 62.5 µM (inactive) | 16.6 µM (inactive) | 26.2 µM (inactive) | 24.7 µM (inactive) | 92.7 µM (inactive) | 14.6 µM (inactive) | 24.3 µM (inactive) | 24 µM (inactive) | 22.7 µM (inactive) | 22.2 µM (inactive)
11 | Brc1ccc2c(c1)C1=C(CO2)Cc2ccccc2O1 | 17.7 µM (inactive) | 17.2 µM (inactive) | 22 µM (inactive) |  | 17.3 µM | 17.1 µM (inactive) | 20.7 µM (inactive) | 13.1 µM (inactive) | 16.9 µM (inactive) | 18.1 µM (inactive) | 19.1 µM (inactive) |  | 20.7 µM (inactive) | 17.9 µM (inactive) | 15.6 µM (inactive) | 19.7 µM (inactive) |  | 23.4 µM (inactive) | 19.3 µM (inactive) | 
12 | C1C[N+]23CCC[N+]2(C1)CCC3 (centres undefined) | > 100 µM (inactive) | > 100 µM (inactive) | 97.5 µM (inactive) | > 100 µM (inactive) | > 100 µM |  | > 100 µM (inactive) |  |  | > 100 µM (inactive) | > 100 µM (inactive) | 31.1 µM (inactive) | > 100 µM (inactive) | > 100 µM (inactive) | > 100 µM (inactive) | > 100 µM (inactive) | > 100 µM (inactive) | > 100 µM (inactive) | > 100 µM (inactive) | 
